Source: ChEMBL document CHEMBL5512659, “Structure optimizing of flavonoids against both MRSA and VRE” (Eur J Med Chem, 2024)
In brackets after ≈: the same amount, converted by molar mass.

The compounds below were run on Enterococcus faecalis (assay: Antibacterial activity against multidrug resistant Enterococcus faecalis ATCC 51299).
Assay type: functional

| Compound | MIC [µg/mL] |
| --- | --- |
| CC(C)=CCc1c(-c2ccc(O)c3c2OC(C)(C)C=C3)oc2cc(O)cc(O)c2c1=O [KUWANON A] | 10 (≈ 23.8 µM) |
| CCCCCCCCc1c(-c2ccc(OC)cc2OC)oc2cc(OC)cc(OC)c2c1=O | > 64 |
| COc1ccc(-c2oc3cc(OC)cc(OC)c3c(=O)c2CCCCc2ccccc2)c(OC)c1 | > 64 |
| CCCCCCc1c(-c2ccc(OCCCCNCc3ccco3)cc2OCCCCNCc2ccco2)oc2cc(OC)cc(O)c2c1=O | 4 (≈ 5.82 µM) |
| COc1cc(O)c2c(=O)c(CCC=C(C)C)c(-c3ccc(O)cc3O)oc2c1 | 32 (≈ 83.7 µM) |
| CCCCCCc1c(-c2ccc(OCCCCNCc3ccc(F)cc3)cc2OCCCCNCc2ccc(F)cc2)oc2cc(OC)cc(O)c2c1=O | 16 (≈ 21.5 µM) |
| CCCCc1c(-c2ccc(OC)cc2OC)oc2cc(OC)cc(OC)c2c1=O | > 64 |
| CCc1c(-c2ccc(O)cc2O)oc2cc(OC)cc(O)c2c1=O | 64 (≈ 195 µM) |
| CCCCCCc1c(-c2ccc(OCCCCNCCCCCCCCN)cc2OCCCCNCCCCCCCCN)oc2cc(OC)cc(O)c2c1=O | 1 (≈ 1.28 µM) |
| CCCCCCc1c(-c2ccc(O)cc2O)oc2cc(O)cc(O)c2c1=O | 16 (≈ 43.2 µM) |
| COc1cc(O)c2c(=O)cc(-c3ccc(O)cc3O)oc2c1 [ARTOCARPETIN] | > 64 |
| CCCCCCc1c(-c2ccc(OCCCCNC3CCCCC3)cc2OCCCCNC2CCCCC2)oc2cc(OC)cc(O)c2c1=O | 2 (≈ 2.89 µM) |
| CC(C)=CCCC1=C[C@@H](c2c(O)cc3oc(-c4ccc(O)cc4O)cc(=O)c3c2O)[C@H](C(=O)c2ccc(O)cc2O)[C@@H](c2ccc(O)cc2O)C1 | 10 (≈ 14.4 µM) |
| CCCCCCCCCCCCCCCCc1c(-c2ccc(O)cc2O)oc2cc(OC)cc(O)c2c1=O | 64 (≈ 122 µM) |
| CCCCCCc1c(-c2ccc(OCCCCNCc3ccc(Br)cc3)cc2OCCCCNCc2ccc(Br)cc2)oc2cc(OC)cc(O)c2c1=O | > 64 |
| CCCCCCCCCCCCc1c(-c2ccc(O)cc2O)oc2cc(OC)cc(O)c2c1=O | 32 (≈ 68.3 µM) |
| CCCc1c(-c2ccc(OC)cc2OC)oc2cc(OC)cc(OC)c2c1=O | > 64 |
| CC(C)=CCc1c(-c2ccc(O)cc2O)oc2c([C@H]3C=C(C)C[C@@H](c4ccc(O)cc4O)[C@@H]3C(=O)c3ccc(O)cc3O)c(O)cc(O)c2c1=O [KUMANON G] | 5 (≈ 7.22 µM) |
| CCCc1c(-c2ccc(O)cc2O)oc2cc(OC)cc(O)c2c1=O | 64 (≈ 187 µM) |

These compounds were tested on Staphylococcus aureus (assay: Antibacterial activity against methicillin resistant Staphylococcus aureus clinical isolate 031).
Assay type: functional

| Compound | MIC [µg/mL] |
| --- | --- |
| CCCCCCc1c(-c2ccc(OCCCCNCc3ccco3)cc2OCCCCNCc2ccco2)oc2cc(OC)cc(O)c2c1=O | 4 (≈ 5.82 µM) |
| CCCCCCc1c(-c2ccc(OCCCCNCc3ccc(F)cc3)cc2OCCCCNCc2ccc(F)cc2)oc2cc(OC)cc(O)c2c1=O | 16 (≈ 21.5 µM) |
| CCCCCCc1c(-c2ccc(OCCCCNCCCCCCCCN)cc2OCCCCNCCCCCCCCN)oc2cc(OC)cc(O)c2c1=O | 1 (≈ 1.28 µM) |
| CCCCCCc1c(-c2ccc(OCCCCNC3CCCCC3)cc2OCCCCNC2CCCCC2)oc2cc(OC)cc(O)c2c1=O | 4 (≈ 5.79 µM) |

Each compound was assayed on Enterococcus faecalis (assay: Antibacterial activity against Enterococcus faecalis clinical isolate 7).
Assay type: functional

| Compound | MIC [µg/mL] |
| --- | --- |
| CCCCCCc1c(-c2ccc(OCCCCNCc3ccco3)cc2OCCCCNCc2ccco2)oc2cc(OC)cc(O)c2c1=O | 4 (≈ 5.82 µM) |
| CCCCCCc1c(-c2ccc(OCCCCNCc3ccc(F)cc3)cc2OCCCCNCc2ccc(F)cc2)oc2cc(OC)cc(O)c2c1=O | 32 (≈ 43.1 µM) |
| CCCCCCc1c(-c2ccc(OCCCCNCCCCCCCCN)cc2OCCCCNCCCCCCCCN)oc2cc(OC)cc(O)c2c1=O | 1 (≈ 1.28 µM) |
| CCCCCCc1c(-c2ccc(OCCCCNC3CCCCC3)cc2OCCCCNC2CCCCC2)oc2cc(OC)cc(O)c2c1=O | 1 (≈ 1.45 µM) |
| CCCCCCc1c(-c2ccc(OCCCCNCc3ccc(Br)cc3)cc2OCCCCNCc2ccc(Br)cc2)oc2cc(OC)cc(O)c2c1=O | > 64 |

These compounds were tested on Staphylococcus aureus (assay: Antibacterial activity against methicillin resistant Staphylococcus aureus clinical isolate 011).
Assay type: functional

| Compound | MIC [µg/mL] |
| --- | --- |
| CCCCCCc1c(-c2ccc(OCCCCNCc3ccco3)cc2OCCCCNCc2ccco2)oc2cc(OC)cc(O)c2c1=O | 2 (≈ 2.91 µM) |
| CCCCCCc1c(-c2ccc(OCCCCNCc3ccc(F)cc3)cc2OCCCCNCc2ccc(F)cc2)oc2cc(OC)cc(O)c2c1=O | 16 (≈ 21.5 µM) |
| CCCCCCc1c(-c2ccc(OCCCCNCCCCCCCCN)cc2OCCCCNCCCCCCCCN)oc2cc(OC)cc(O)c2c1=O | 1 (≈ 1.28 µM) |
| CCCCCCc1c(-c2ccc(OCCCCNC3CCCCC3)cc2OCCCCNC2CCCCC2)oc2cc(OC)cc(O)c2c1=O | 2 (≈ 2.89 µM) |
| CCCCCCc1c(-c2ccc(OCCCCNCc3ccc(Br)cc3)cc2OCCCCNCc2ccc(Br)cc2)oc2cc(OC)cc(O)c2c1=O | 64 (≈ 74 µM) |

These compounds were tested on Staphylococcus aureus (assay: Antibacterial activity against methicillin resistant Staphylococcus aureus clinical isolate 003).
Assay type: functional

| Compound | MIC [µg/mL] |
| --- | --- |
| CC(C)=CCc1c(-c2ccc(O)c3c2OC(C)(C)C=C3)oc2cc(O)cc(O)c2c1=O [KUWANON A] | 5 (≈ 11.9 µM) |
| CCCCCCCCc1c(-c2ccc(OC)cc2OC)oc2cc(OC)cc(OC)c2c1=O | > 64 |
| COc1ccc(-c2oc3cc(OC)cc(OC)c3c(=O)c2CCCCc2ccccc2)c(OC)c1 | > 64 |
| CCCCCCc1c(-c2ccc(OCCCCNCc3ccco3)cc2OCCCCNCc2ccco2)oc2cc(OC)cc(O)c2c1=O | 2 (≈ 2.91 µM) |
| COc1cc(O)c2c(=O)c(CCC=C(C)C)c(-c3ccc(O)cc3O)oc2c1 | 16 (≈ 41.8 µM) |
| CCCCCCc1c(-c2ccc(OCCCCNCc3ccc(F)cc3)cc2OCCCCNCc2ccc(F)cc2)oc2cc(OC)cc(O)c2c1=O | 16 (≈ 21.5 µM) |
| CCCCc1c(-c2ccc(OC)cc2OC)oc2cc(OC)cc(OC)c2c1=O | > 64 |
| CCc1c(-c2ccc(O)cc2O)oc2cc(OC)cc(O)c2c1=O | > 64 |
| CCCCCCc1c(-c2ccc(OCCCCNCCCCCCCCN)cc2OCCCCNCCCCCCCCN)oc2cc(OC)cc(O)c2c1=O | 0.5 (≈ 0.64 µM) |
| CCCCCCc1c(-c2ccc(O)cc2O)oc2cc(O)cc(O)c2c1=O | 8 (≈ 21.6 µM) |
| COc1cc(O)c2c(=O)cc(-c3ccc(O)cc3O)oc2c1 [ARTOCARPETIN] | > 64 |
| CCCCCCc1c(-c2ccc(OCCCCNC3CCCCC3)cc2OCCCCNC2CCCCC2)oc2cc(OC)cc(O)c2c1=O | 1 (≈ 1.45 µM) |
| CC(C)=CCCC1=C[C@@H](c2c(O)cc3oc(-c4ccc(O)cc4O)cc(=O)c3c2O)[C@H](C(=O)c2ccc(O)cc2O)[C@@H](c2ccc(O)cc2O)C1 | 5 (≈ 7.22 µM) |
| CCCCCCCCCCCCCCCCc1c(-c2ccc(O)cc2O)oc2cc(OC)cc(O)c2c1=O | 32 (≈ 61 µM) |
| CCCCCCc1c(-c2ccc(OCCCCNCc3ccc(Br)cc3)cc2OCCCCNCc2ccc(Br)cc2)oc2cc(OC)cc(O)c2c1=O | 64 (≈ 74 µM) |
| CCCCCCCCCCCCc1c(-c2ccc(O)cc2O)oc2cc(OC)cc(O)c2c1=O | 16 (≈ 34.1 µM) |
| CCCc1c(-c2ccc(OC)cc2OC)oc2cc(OC)cc(OC)c2c1=O | > 64 |
| CC(C)=CCc1c(-c2ccc(O)cc2O)oc2c([C@H]3C=C(C)C[C@@H](c4ccc(O)cc4O)[C@@H]3C(=O)c3ccc(O)cc3O)c(O)cc(O)c2c1=O [KUMANON G] | 5 (≈ 7.22 µM) |
| CCCc1c(-c2ccc(O)cc2O)oc2cc(OC)cc(O)c2c1=O | 32 (≈ 93.5 µM) |

What follows are compounds tested on Staphylococcus aureus (assay: Antibacterial activity against Staphylococcus aureus clinical isolate 31).
Assay type: functional

| Compound | MIC [µg/mL] |
| --- | --- |
| CCCCCCc1c(-c2ccc(OCCCCNCc3ccco3)cc2OCCCCNCc2ccco2)oc2cc(OC)cc(O)c2c1=O | 4 (≈ 5.82 µM) |
| CCCCCCc1c(-c2ccc(OCCCCNCc3ccc(F)cc3)cc2OCCCCNCc2ccc(F)cc2)oc2cc(OC)cc(O)c2c1=O | 8 (≈ 10.8 µM) |
| CCCCCCc1c(-c2ccc(OCCCCNCCCCCCCCN)cc2OCCCCNCCCCCCCCN)oc2cc(OC)cc(O)c2c1=O | 0.5 (≈ 0.64 µM) |
| CCCCCCc1c(-c2ccc(OCCCCNC3CCCCC3)cc2OCCCCNC2CCCCC2)oc2cc(OC)cc(O)c2c1=O | 2 (≈ 2.89 µM) |
| CCCCCCc1c(-c2ccc(OCCCCNCc3ccc(Br)cc3)cc2OCCCCNCc2ccc(Br)cc2)oc2cc(OC)cc(O)c2c1=O | 64 (≈ 74 µM) |

The compounds below were run on Enterococcus faecalis (assay: Antibacterial activity against Enterococcus faecalis clinical isolate 13).
Assay type: functional

| Compound | MIC [µg/mL] |
| --- | --- |
| CCCCCCc1c(-c2ccc(OCCCCNCc3ccco3)cc2OCCCCNCc2ccco2)oc2cc(OC)cc(O)c2c1=O | 2 (≈ 2.91 µM) |
| CCCCCCc1c(-c2ccc(OCCCCNCc3ccc(F)cc3)cc2OCCCCNCc2ccc(F)cc2)oc2cc(OC)cc(O)c2c1=O | 8 (≈ 10.8 µM) |
| CCCCCCc1c(-c2ccc(OCCCCNCCCCCCCCN)cc2OCCCCNCCCCCCCCN)oc2cc(OC)cc(O)c2c1=O | 1 (≈ 1.28 µM) |
| CCCCCCc1c(-c2ccc(OCCCCNC3CCCCC3)cc2OCCCCNC2CCCCC2)oc2cc(OC)cc(O)c2c1=O | 1 (≈ 1.45 µM) |
| CCCCCCc1c(-c2ccc(OCCCCNCc3ccc(Br)cc3)cc2OCCCCNCc2ccc(Br)cc2)oc2cc(OC)cc(O)c2c1=O | > 64 |

Each compound was assayed on Staphylococcus aureus (assay: Antibacterial activity against Staphylococcus aureus clinical isolate 29).
Assay type: functional

| Compound | MIC [µg/mL] |
| --- | --- |
| CCCCCCc1c(-c2ccc(OCCCCNCc3ccco3)cc2OCCCCNCc2ccco2)oc2cc(OC)cc(O)c2c1=O | 2 (≈ 2.91 µM) |
| CCCCCCc1c(-c2ccc(OCCCCNCc3ccc(F)cc3)cc2OCCCCNCc2ccc(F)cc2)oc2cc(OC)cc(O)c2c1=O | 16 (≈ 21.5 µM) |
| CCCCCCc1c(-c2ccc(OCCCCNCCCCCCCCN)cc2OCCCCNCCCCCCCCN)oc2cc(OC)cc(O)c2c1=O | 1 (≈ 1.28 µM) |
| CCCCCCc1c(-c2ccc(OCCCCNC3CCCCC3)cc2OCCCCNC2CCCCC2)oc2cc(OC)cc(O)c2c1=O | 1 (≈ 1.45 µM) |
| CCCCCCc1c(-c2ccc(OCCCCNCc3ccc(Br)cc3)cc2OCCCCNCc2ccc(Br)cc2)oc2cc(OC)cc(O)c2c1=O | > 64 |
